The source made the active and inactive calls.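 Rule for the calls: active = EC50 no more than a set limit of log units above the highest dose; inactive = the rest.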
Target: S. pyogenes SKKanGAS, kanamycin survival, BacTiterGlo, 6 h
Test: S. pyogenes SKKanGAS kanamycin growth inhibitors – SKKanGAS strain, luminescence, dose confirmation, streptokinase promoter inhibitor project, dose response (AID 1902);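 note: lower survival reflects blocked streptokinase promoter driving kanamycin resistance gene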

SMILES | EC50
CC(C)=CCc1c(-c2ccc(O)cc2O)oc2c3c(cc(O)c2c1=O)OC(C)(C)C=C3 | 1230 nM
O=C(CCC(=O)Nc1ccc(Br)cc1)N/N=C/c1ccccc1O | 5070 nM
C/C(=N\NS(=O)(=O)c1ccc(C)cc1)c1ccc(C)o1 | > 15000 nM (inactive)
O=C1[C@H]2C(c3ccccc3)=NN(c3ccccc3)[C@H]2C(=O)N1c1ccccc1 | 485 nM
CCc1ccc2c(c1)C1(NN=C(c3cccc4ccccc34)S1)C(=O)N2 (stereo not drawn) | 115 nM
CC(/C=C1\SC(=O)N(CC(=O)Nc2ccc(O)cc2)C1=O)=C\c1ccccc1 | 8020 nM
CCC(=O)NC(c1ccc(OC)c(OC)c1)c1cc(Cl)c2cccnc2c1O (stereo not drawn) | 5000 nM
C/C(=N\NC(=O)c1ccc(C)cc1)c1c(C)[nH]n(-c2ccccc2)c1=O | 2150 nM
COc1ccc(C(=O)NC(=S)NNC(=O)c2ccco2)cc1 | 4480 nM
C[C@H]1COc2c(N3CCN(C)CC3)c(F)cc3c(=O)c(C(=O)O)cn1c23 | 1550 nM
C/C(=N\NC(=O)c1ccc(Cl)cc1)c1ccccn1 | 1480 nM
Cc1cc(C)c2nc(NNC(=O)c3ccc(S(=O)(=O)N4CCCCC4)cc3)sc2c1 | 1860 nM
CC12CCC(C(=O)N(CSC(=S)N/N=C\c3ccccc3O)C1=O)C2(C)C (stereo not drawn) | 2550 nM
CN1CCN(C(c2ccc(Cl)cc2)c2cc(Cl)c3cccnc3c2O)CC1 (stereo not drawn) | 1460 nM
O=c1c2c([N+](=O)[O-])cc([N+](=O)[O-])cc2sn1Cc1ccccc1 | 6620 nM
C[C@H]1c2cccc(O)c2C(O)=C2C(=O)[C@]3(O)C(O)=C(C(N)=O)C(=O)[C@@H](N(C)C)C3[C@@H](O)C21 (stereo partly drawn) | < 60 nM
Clc1ccc(SCc2cc(Cl)nc(-c3ccccc3)n2)cc1 | > 15000 nM (inactive)
O=C(N/N=C/c1cc(Br)ccc1O)c1ccncc1 | 1150 nM
Cc1[nH]n(-c2ccccc2)c(=O)c1N=Nc1c(O)cc(S(=O)(=O)N(C)C)c2ccccc12 | 1100 nM
Cn1c(=O)c(NCCc2ccccc2)c2c3c(cccc31)C(=O)c1ccccc1-2 | 8860 nM
Cc1ccc(C(=O)N2CCOCC2)cc1S(=O)(=O)N1CCOCC1 | > 15000 nM (inactive)
Oc1[nH]c2ccc(Br)cc2c1N=NC(=S)Nc1ccc(F)cc1 | 115 nM
Fc1ccc(-[n+]2nc(Nc3ccccc3)sc2-c2c3ccccc3cc3ccccc23)cc1 | 5950 nM
CCOC(=O)c1cc(-c2ccc(OC(F)F)cc2)nc2c1c(=O)[nH]c(=O)n2C | 392 nM
Cc1nc(=S)c2c([nH]1)-c1ccccc1CC21CCCCC1 | 945 nM
Nc1[nH]n2c(=O)c3c(nc2c1N=Nc1ccc(Cl)cc1)CCCC3 | 6130 nM
Cc1ccc(C(=O)N2CCCC(CCC(=O)NCc3ccccc3F)C2)cn1 (stereo not drawn) | > 15000 nM (inactive)

SMILES | EC50
CCOC(=O)N1CCN(C(=O)c2ccc3c(=O)n(CCC4=CCCCC4)c(=S)[nH]c3c2)CC1 | 7740 nM
COc1ccc(NC(=O)CN(C)C(=O)/C=C/c2cn(-c3ccccc3)nc2-c2ccc(C)cc2)cc1 | 8680 nM
CC(C)(C)c1ccc(OCC(=O)NNC(=S)NC(=O)c2ccco2)c(Br)c1 | < 60 nM
CSc1nc2cc(Oc3cccc(Cl)c3Cl)c(Cl)cc2[nH]1 | 2920 nM
Cc1c(C(=O)Nc2ccc(Oc3ccccc3)cc2)sc2nc3n(c(=O)c12)CCC3 | 6210 nM
CC1=C(C(=O)O)N2C(=O)C(NC(=O)Cc3ccccc3)C2SC1 (stereo not drawn) | 1030 nM
CCOC(=O)c1cc(-c2cccs2)nc2c1c(C)nn2-c1ccccn1 | 2640 nM
CCCC(=O)NC(c1ccco1)c1cc(Cl)c2cccnc2c1O (stereo not drawn) | 1500 nM
CCCCCC(=O)Cc1cc(O)cc2c1C(=O)Oc1cc(O)c(C(=O)O)c(CCCCC)c1O2 | 6670 nM
COc1cc(Cc2cc(N)nc(N)n2)cc(OC)c1OC | 4310 nM
Cc1ccc(/C=C2/Sc3ccc(C(=O)N4CCN(c5ccccn5)CC4)cc3NC2=O)cc1 | 1910 nM
Cc1c(C(=O)NNC(=O)c2ccccc2O)oc2ccc(Br)cc12 | > 15000 nM (inactive)
CC/C(=C/c1ccccc1)c1cccc2[nH]c3c(OC)cccc3c12 | 2490 nM
CN1CCN(C(=O)C(=O)c2cn(CC(=O)N3CCCC3)c3ccccc23)CC1 | > 15000 nM (inactive)
Cc1[nH]n2c(=O)cc(-c3ccc([N+](=O)[O-])cc3)nc2c1-c1ccccc1 | 319 nM
CNc1ccc2oc(C[C@H]3O[C@@]4(CC[C@H]3C)O[C@H]([C@H](C)C(=O)c3ccc[nH]3)[C@H](C)C[C@H]4C)nc2c1C(=O)O | < 60 nM
Nc1c(Cl)cc(C2=NCCn3c2c2ccc([N+](=O)[O-])cc2[n+]3[O-])cc1Cl | 2440 nM
O=[N+]([O-])c1cc(S(=O)(=O)Nc2ccccc2)ccc1N1CCN(c2ccccc2)CC1 | 7210 nM
CCCCCCn1c(=O)c(C(=O)Nc2c(C)n(C)n(-c3ccccc3)c2=O)c(O)c2ccccc21 | 2590 nM
CSCc1nnc(NC(=O)c2ccc(S(=O)(=O)N(CC(C)C)CC(C)C)cc2)o1 | 724 nM
Cc1nc(C)c(C(=O)N/N=C/c2cc(Br)ccc2O)s1 | 2000 nM
CNC1=C(N(C(C)=O)c2ccc(Br)cc2)C(=O)c2ccccc2C1=O | 6360 nM
Cc1ccc2c(Cl)cc(Cl)c(OCC(=O)NC(C)(C)C)c2n1 | 3140 nM
CCCCCCCCCCCCN1C(=O)CSC1c1cccnc1 (stereo not drawn) | 5900 nM
COc1ccc(Br)cc1[C@H]1[C@@H]2C=CCC[C@@]2(C)C(=O)N1Cc1ccccc1 | 4920 nM
Cc1ccc(C)c(CN2CCCN(Cc3cc(C)ccc3C)S2(=O)=O)c1 | 2580 nM

— PubChem BioAssay AID1902 (Broad Institute, 2009)
